In patent publication EP4483904A1, “POLYOXOMETALATES AS MEMBRANE CARRIERS” (Universität Wien, priority 2023, dated 2025):
Blank lines part the entries; values can stand above or below the compound they belong to.

Columns and labels:
[1] = Stability investigation by NMR spectroscopy (hydrolysis in buffer/media); assay type: physicochemical; settings: for Hydrolysis/Stability pH 7.5: 10 mM Hepes or 10 mM Tris, pH 7.4; for Hydrolysis/Stability pH 7.5 / Hydrolysis/Stability pH 5.5: 107 mM NaCl; for Hydrolysis/Stability pH 5.5: 10 mM Mes; for long-term stability in aqueous solution: slightly acidic and neutral pH, 24 h and longer, NMR
Description: POMs of the globular Keggin and planar Anderson archetype and with varying charge status from -3 to -8 (Fig. 1) were selected. To offset the known [XW12O40]^n- (X = hetero-ion) hydrolysis propensity in aqueous solution, most pronounced at neutral pH, more highly charged mixed-metal derivatives (Fig. 1,lefthand side) were also included. The latter are obtained by hydrolytic removal of one W=O^4+ unit from the Keggin structure and the subsequent incorporation of an addenda metal to fill the cavity of the monolacunary intermediate. In detail, the following POM anions were studied (as acid or sodium, potassium, or tetraalkylammonium salts), see Fig. 1: [α-P^VW^VI12O40]^3- ([PW12]^3-), [α-Si^IVW^VI12O40]^4- ([SiW12]^4-), [α-Al^IIIW^VI12O40]^5- ([AlW12]^5-), [α-P^VV^VW^VI11O40]^4- ([PVW11]^4-), [α-Si^IVMo^VIW^VI11O40]^4- ([SiMoW11]^4-), [α- HAl^IIIGe^IVW^VI11O39(H2O)]^5- ([GeAlW11]^5-), [{α-P^VW^VI11O39Zr^IV(µ-OH)(H2O)}2]^8- ([(PZrW11)2]^8-), and [Al^III(OH)6Mo^VI6O18]^3- ([AlMo6]^3-). First, their long-term (24 h and longer) stability in aqueous solution (slightly acidic and neutral) was investigated by applying the active NMR nuclei in their composition (see).

[2] = Transport experiments in CF-loaded zwitterionic EYPC vesicles (CF fluorescence, Hill analysis); assay type: biochemical; set-up: key to membrane transport activity: - - -: No detectable activity at pH 5.5 and 7.4; settings: for membrane transport activity: pH 5.5 and 7.4, heptaArg, protamine, polyArg (for [AlMo6]^3- heptaArg and protamine only); for behaviour towards liposomes at strongly acidic pH: pH 1.2
Experimental: The dry film was rehydrated with 1 mL buffer (50 mM CF, 10 mM Hepes, pH 7.4 or 50 mM CF, 10 mM Tris, pH 7.4) for 30 min at room temperature, subjected to freeze-thaw cycles (7 times) and extrusions (15 times) through a polycarbonate membrane (pore size 100 nm). Extravesicular components were removed by size exclusion chromatography (NAP-25 column Sephadex G-25 DNA grade) with 10 mM Hepes, 107 mM NaCl, pH 7.4 or 10 mM Hepes, 107 mM NaCl, pH 7.4. Phospholipid concentration was calculated by the Stewart assay. […]
Vesicles stock solutions (5-10 µL) were diluted with the corresponding buffer in a disposable plastic cuvette and gently stirred (total volume 2000 µL, final lipid concentration 13 µM). […] Fluorescence intensities were normalized to fractional emission as: I(t) = (It −I0)/(I∞ −I0) [formula]
Where I0 = It before POM addition and […] = I∞ after lysis. For Hill analysis, It before lysis was defined as transport activity, Y, and plotted against POM concentration, c, and fitted to the Hill equation (2), to afford the activity in absence of POM, Y0, the maximal activity, Ymax, the concentration needed to achieve 50 % of maximal activity, EC50, and the Hill coefficient, n. Y = Y0 + (Ymax −Y0)/(1 + (((EC50)/(c)))^n) [formula]
In the transport measurements, where different carriers (POMs) are tested with the same cargo, the activator efficiency (E) is determined by their capacity to transport the impermeable cargo to the intravesicular region and is characterized by Ymax, its maximal activity, and EC50, the effective activator concentration. An ideal carrier reaches high Ymax at low EC50. To count both factors, the activator efficiency is defined as: E = Ymax (pEC50)/(f) [formula] were pEC50 is the negative logarithm of the EC50, and fa scaling factor, which was set to 20.6 to calibrate the highest (previously known) activation efficiency, E, as 10.
The capability of POMs to act as membrane carriers was explored first in large unilamellar vesicles (LUVs), loaded with carboxyfluorescein (CF). We selected […] representative cationic peptides, heptaarginine (heptaArg), heptalysine (heptaLys), protamine, and polyarginine (polyArg), as test cargos. Inside the LUVs, the CF dye was encapsulated at self-quenching concentrations. With a suitable carrier, heptaArg can be taken up into the vesicles, bind with entrapped CF, and shuttle back to the exterior, spreading the previously quenched CF, and thereby restoring its fluorescence (Fig. 3). In the time-resolved fluorescence experiments, to test whether a POM acts as molecular carrier, the CF emission was continuously monitored during the addition of the inorganic carrier (t = 60 s) and after injection the impermeable heptaArg (t = 120 s). At the end of the experiment (t = 600 s), the surfactant Triton X-100 was added to release all the entrapped CF and allow normalization of the intensity data (Fig. 4a).

[3] = HPTS/DPX assay of membrane transport in EYPC vesicles; assay type: biochemical; settings: Measured by HPTS/DPX assay
[4] = EYPC vesicles, 0.1 µM polyArg, neutral pH 7.4
[5] = EYPC vesicles, 0.1 µM polyArg, neutral pH 7.4, read-out: PolyArg EC50
[6] = EYPC vesicles, 1 µM protamine, neutral pH 7.4
[7] = Tris-HCl pH 7.5 freshly prepared

Compound: O=C(O)CCCc1ccc2ccc3cccc4ccc1c2c34 [PyBu^-, pyrenebutyrate, reference compound]
Hydrolysis/Stability pH 7.5 [1]: stable
Hydrolysis/Stability pH 5.5 [1]: stable
PolyArg E (activation efficiency) [2, 4]: 8.5
PolyArg Ymax [2, 4]: 91%
EC50 [2, 5]: 12 µM
Protamine E (activation efficiency) [2, 6]: 5.3
Protamine Ymax [2, 6]: 77%
EC50 ([2]; EYPC vesicles, 1 µM protamine, neutral pH 7.4, read-out: Protamine EC50): 39 µM
HeptaArg Ymax ([2]; EYPC vesicles, 10 µM heptaArg, neutral pH 7.4): 100%
HeptaArg E (activation efficiency) ([2]; EYPC vesicles, 10 µM heptaArg, neutral pH 7.4, E = Ymax(pEC50/f), f = 20.6): 4.8
EC50 ([2]; EYPC vesicles, 10 µM heptaArg, neutral pH 7.4, read-out: HeptaArg EC50): 100 µM
efficacy when the sequence of carrier-cargo addition was reversed ([2]; heptaarginine 10 µM, Fig. 12): significantly reduces its activity

Compound: B12Br12^2-
PolyArg E (activation efficiency) ([3]; 0.1 µM polyArg, pH 7.4): 12
PolyArg Ymax ([3]; 0.1 µM polyArg, pH 7.4): 94%
EC50 ([3]; 0.1 µM polyArg, pH 7.4, read-out: PolyArg EC50): 2.6 µM
Protamine E (activation efficiency) ([3]; 1 µM protamine, pH 7.4): 8.0
Protamine Ymax ([3]; 1 µM protamine, pH 7.4): 84%
EC50 ([3]; 1 µM protamine, pH 7.4, read-out: Protamine EC50): 11 µM
HeptaArg E (activation efficiency) ([3]; 10 µM heptaArg, pH 7.4): 6.1
HeptaArg Ymax ([3]; 10 µM heptaArg, pH 7.4): 95%
EC50 ([3]; 10 µM heptaArg, pH 7.4, read-out: HeptaArg EC50): 48 µM
Hydrolysis/Stability pH 7.5 [1]: stable
Hydrolysis/Stability pH 5.5 [1]: stable

Compound: Na3[Al^III(OH)6Mo^VI6O18]·2H2O [[AlMo6]^3-]
Hydrolysis/Stability pH 7.5 [1]: stable
POM anions with % for parent (active) anion based on signals integration ([1]; Hepes pH 7.5 after 1 day): [Al^III(OH)6MO^VI6O18]^3-
POM anions with % for parent (active) anion based on signals integration ([1]; Hepes pH 7.5 freshly prepared): [Al^III(OH)6MO^VI6O18]^3-
PolyArg E (activation efficiency) [2, 4]: 3.1
PolyArg Ymax [2, 4]: 33%
EC50 [2, 5]: 11 µM
membrane transport activity ([2]; EYPC vesicles): - - -[j]
cargo transport in CF-loaded vesicles (qualitative) ([2]; LUVs loaded with CF, added cargo): incipient transport activity, but only for polyarginine as cargo

Continued, in another order:

Hydrolysis/Stability pH 7.5 [1]: stable
POM anions with % for parent (active) anion based on signals integration ([1]; Tris-HCl pH 7.5 after 1 day): [HAl^IIIGe^IVW^VI11O39(H2O)] ^4-
POM anions with % for parent (active) anion based on signals integration [1, 7]: [HAl^IIIGe^IVW^VI11O39(H2O)] ^4-
long-term stability in aqueous solution [1]: stable at neutral pH
Compound: (C4H12N)4[α-HAl^IIIGe^IVW^VI11O39(H2O)]·11H2O [[GeAlW11]^5-]
membrane transport activity ([2]; EYPC vesicles): - - -[j]

Hydrolysis/Stability pH 7.5 [1]: stable
Compound: (Et2NH2)8[{α-P^VW^VI11O39Zr^IV(µ-OH)(H2O)}2]·7H2O [[(PZrW11)2]^8-]
POM anions with % for parent (active) anion based on signals integration ([1]; Hepes pH 7.5 after 1 day): [{α-PW11O39Zr(µ-OH)(H2O)}2]^8-·(99 %) and [Zr(α-PW11O39)2]^10-
POM anions with % for parent (active) anion based on signals integration ([1]; Hepes pH 7.5 freshly prepared): [{α-PW11O39Zr(µ-OH)(H2O)}2]^8-·(99 %) and [Zr(α-PW11O39)2]^10-
membrane transport activity ([2]; EYPC vesicles): - - -[j]

Hydrolysis/Stability pH 7.5 [1]: to [Si^VW^VI8O39]^8-
hydrolysis above pH 4.5 [1]: rapid hydrolysis
long-term stability in aqueous solution [1]: fully hydrolyzed
Compound: K4[α-Si^IVW^VI12O40]·14H2O [[SiW12]^4-]
POM anions with % for parent (active) anion based on signals integration ([1]; Hepes pH 7.5 (time not given)): [Si^IVW^VI12O40]^4- and [Si^IVW^VInO39]^8- (high noise to signal ratio, correct integration of peak cannot be performed; but clearly [Si^IVW^VI11O39]^8- is predominant)
membrane transport activity ([2]; EYPC vesicles): - - -[jilt]
behaviour towards liposomes at strongly acidic pH [2]: showed the desired cargo transport at acidic pH, without membrane disruption

Hydrolysis/Stability pH 5.5 [1]: to [P^VW^VI11O39]^7-
% of hydrolysis product [P^VW^VI11O39]^7- based on signals integration ([1]; Mes pH 5.5 after 1 day): 61%
POM anions with % for parent (active) anion based on signals integration ([1]; Mes pH 5.5 after 1 day): 5%
% of hydrolysis product [P^VW^VI11O39]^7- based on signals integration ([1]; Mes pH 5.5 freshly prepared): 61%
POM anions with % for parent (active) anion based on signals integration ([1]; Mes pH 5.5 freshly prepared): 4%
hydrolysis above pH 4.5 [1]: rapid hydrolysis
long-term stability in aqueous solution [1]: fully hydrolyzed
Compound: Na3[α-P^VW^VI12O40]·nH2O [[PW12]^3-]
POM anions with % for parent (active) anion based on signals integration ([1]; NaOAc/HOAc pH 4 after 1 day): [P^VW^VI12O40]^3- (28 %) and intermediate anions
POM anions with % for parent (active) anion based on signals integration ([1]; NaOAc/HOAc pH 4 freshly prepared): [P^VW^VI12O40]^3- (30 %) and intermediate anions
membrane transport activity ([2]; EYPC vesicles): - - -[j,k]
behaviour towards liposomes at strongly acidic pH [2]: strong interaction and membrane disruption

Hydrolysis/Stability pH 7.5 [1]: stable
POM anions with % for parent (active) anion based on signals integration ([1]; Tris-HCl pH 7.5 after 1 day): [Al^IIIW^VI12O40]^5-
POM anions with % for parent (active) anion based on signals integration [1, 7]: [Al^IIIW^VI12O40]^5-
long-term stability in aqueous solution [1]: stable at neutral pH
Compound: Na5[α-Al^IIIW^VI12O40]·12H2O [[AlW12]^5-]
membrane transport activity ([2]; EYPC vesicles): - - -[j]
